The results in this text go back to patent publication US12139520B2 (priority 2020, dated 2024).

Structures are written as SMILES. Bridge positions count the residues as written; N and C are the ends. Square brackets hold non-standard residues; d marks the D form. Peptide text beside a SMILES is read from it. Hyp = O=C(O)[C@@H]1C[C@@H](O)CN1; Cit = NC(=O)NCCC[C@H](N)C(=O)O

Data set [1] is described as follows: Physical stability of peptide analogues (Thioflavin T fibrillation). The settings on record: maximum ThT signal normalized between hAMY maximum and buffer background; 40° C., shaking, four days; pH 7 per table title. The format is physicochemical. An outline of the steps:
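Maximum ThT emission at 480 nm, after LOESS smoothing, is given as percent of the span from buffer background to hAMY. Conditions: 50 mM buffer at pH 4 or 7, 4 μM dye, 40 °C, repeated shaking, readings every 10 min for four days.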

Another data set deals with T1, hAMY3 receptor (Homo sapiens, UniProt O60896+P30988).
T1 sequence (P30988 25-474): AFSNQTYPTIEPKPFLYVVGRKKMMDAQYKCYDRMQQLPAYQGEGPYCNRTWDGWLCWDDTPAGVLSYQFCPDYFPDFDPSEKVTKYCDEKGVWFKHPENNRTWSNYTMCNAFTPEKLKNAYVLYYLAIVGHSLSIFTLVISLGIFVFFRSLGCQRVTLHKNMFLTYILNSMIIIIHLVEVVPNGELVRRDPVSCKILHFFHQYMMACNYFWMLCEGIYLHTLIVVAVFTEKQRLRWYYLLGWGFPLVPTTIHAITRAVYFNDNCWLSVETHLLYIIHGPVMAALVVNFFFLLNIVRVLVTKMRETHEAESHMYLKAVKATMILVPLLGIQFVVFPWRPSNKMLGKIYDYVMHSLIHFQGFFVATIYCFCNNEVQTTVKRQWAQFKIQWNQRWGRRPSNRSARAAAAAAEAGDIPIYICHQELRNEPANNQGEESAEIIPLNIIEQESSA
T1 sequence (O60896 24-148 partner): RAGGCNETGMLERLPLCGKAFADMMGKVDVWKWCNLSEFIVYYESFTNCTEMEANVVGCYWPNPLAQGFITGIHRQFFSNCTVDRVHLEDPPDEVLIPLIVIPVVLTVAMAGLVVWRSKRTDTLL
Briefly: cAMP assay for in vitro receptor activation, hAMY3-R. The settings on record: cAMP assay, hAMY3 receptor; read-out: hAMY3R EC50. The format is cell-based. The gist of the method: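 Monoclonal cell line stably overexpressing hAMY3 receptor, plated in DPBS with 0.05% casein and 0.5 mM IBMX, was stimulated with graded compound doses for 30 min at room temperature. cAMP accumulation was read by time-resolved FRET one hour after adding detection reagents.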
A general note: cAMP levels reflect the balance of adenylyl cyclase and phosphodiesterase activity.

The target in another data set is hAM1 receptor (Homo sapiens, UniProt O60895+Q16602). Briefly: cAMP assay for in vitro receptor activation, hAM1-R. The format is cell-based. The settings on record: cAMP assay, hAM1 receptor; read-out: hAM1R EC50. The gist of the method:
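cAMP accumulation was measured in a monoclonal cell line stably overexpressing the hAM1 receptor. Frozen aliquots were thawed and plated at 8000 cells/well in DPBS containing 0.05% casein and 0.5 mM IBMX.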

Chain of hAM1 receptor (Q16602 23-461): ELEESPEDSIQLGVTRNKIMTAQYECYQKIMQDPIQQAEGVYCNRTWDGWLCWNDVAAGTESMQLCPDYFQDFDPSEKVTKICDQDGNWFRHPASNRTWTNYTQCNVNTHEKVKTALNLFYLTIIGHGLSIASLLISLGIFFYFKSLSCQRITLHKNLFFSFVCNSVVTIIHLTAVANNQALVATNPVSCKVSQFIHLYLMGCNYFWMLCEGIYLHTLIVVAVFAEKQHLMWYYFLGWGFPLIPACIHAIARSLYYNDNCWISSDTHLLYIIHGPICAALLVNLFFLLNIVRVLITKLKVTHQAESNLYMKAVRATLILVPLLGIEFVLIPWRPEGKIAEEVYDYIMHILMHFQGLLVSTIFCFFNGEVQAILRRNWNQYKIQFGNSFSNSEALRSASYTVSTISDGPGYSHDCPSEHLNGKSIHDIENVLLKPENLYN
Chain of hAM1 receptor (O60895 43-175 partner): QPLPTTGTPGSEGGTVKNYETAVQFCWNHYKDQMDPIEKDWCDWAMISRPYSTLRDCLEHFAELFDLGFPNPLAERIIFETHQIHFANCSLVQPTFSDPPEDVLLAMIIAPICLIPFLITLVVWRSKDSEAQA

As a reminder, the EC50 is the midpoint of the concentration-response curve. In the case of `CC[C@H](C)[C@H](NC(=O)[C@H](CCC(N)=O)NC(=O)[C@H](Cc1c[nH]cn1)NC(=O)[C@H](C)NC(=O)[C@H](CC(C)C)NC(=O)[C@H](CCCNC(N)=O)NC(=O)[C@H](CCC(N)=O)NC(=O)[C@@H](NC(=O)[C@@H](NC(=O)[C@@H]1CSSC[C@H](NC(=O)[C@@H](N)CCCCN)C(=O)N[C@@H](CC(N)=O)C(=O)N[C@@H]([C@@H](C)O)C(=O)N[C@@H](C)C(=O)N[C@@H]([C@@H](C)O)C(=O)N1)[C@@H](C)O)C(C)C)C(=O)N[C@@H](Cc1ccc(O)cc1)C(=O)N[C@@H](CCC(N)=O)C(=O)N[C@@H](Cc1ccccc1)C(=O)N[C@H](C(=O)N[C@@H](CC(=O)O)C(=O)N[C@@H](CCCCN)C(=O)N[C@@H](CC(=O)O)C(=O)N[C@@H](CCCCN)C(=O)N[C@@H](CC(=O)O)C(=O)N[C@@H](CC(N)=O)C(=O)N[C@H](C(=O)N[C@@H](C)C(=O)N1CCC[C@H]1C(=O)N[C@@H](CCCNC(=N)N)C(=O)N[C@H](C(=O)N[C@@H](CCC(=O)O)C(=O)N[C@H](C(=O)NCC(=O)N[C@@H](CO)C(=O)N[C@@H](CC(N)=O)C(=O)NCC(=O)N[C@@H](Cc1ccc(O)cc1)C(N)=O)C(C)C)[C@@H](C)O)C(C)C)[C@@H](C)O` [compound 272] (H-KCNTATCTVQ[Cit]LAHQIYQFTDKDKDNVAPRTEVGSNGY-NH2; disulfide 2-7; N-terminus assumed), the “Max ThT signal (%)” value in data set [1] is reported as 16.750%. Further, the EC50 at hAMY3 receptor was 0.009 nM; at hAM1 receptor it was > 5000 nM.

Turning to `CC[C@H](C)[C@H](NC(=O)[C@H](CCC(N)=O)NC(=O)[C@H](Cc1c[nH]cn1)NC(=O)[C@H](C)NC(=O)[C@H](CC(C)C)NC(=O)[C@H](CCCNC(N)=O)NC(=O)[C@H](CCC(N)=O)NC(=O)[C@@H](NC(=O)[C@@H](NC(=O)[C@@H]1CSSC[C@H](NC(=O)CN)C(=O)N[C@@H](CCCNC(=N)N)C(=O)N[C@@H]([C@@H](C)O)C(=O)NCC(=O)N[C@@H]([C@@H](C)O)C(=O)N1)[C@@H](C)O)C(C)C)C(=O)N[C@@H](Cc1ccc(O)cc1)C(=O)N[C@@H](CCC(N)=O)C(=O)N[C@@H](Cc1ccccc1)C(=O)N[C@H](C(=O)N[C@@H](CC(=O)O)C(=O)N[C@@H](CCCCN)C(=O)N[C@@H](CC(=O)O)C(=O)N[C@@H](CCCCN)C(=O)N[C@@H](CC(=O)O)C(=O)N[C@@H](CC(N)=O)C(=O)N[C@H](C(=O)N[C@@H](C)C(=O)N1CCC[C@H]1C(=O)N[C@@H](CCCNC(=N)N)C(=O)N[C@H](C(=O)N[C@@H](CC(N)=O)C(=O)N[C@H](C(=O)NCC(=O)N1CCC[C@H]1C(=O)N[C@@H](CCC(N)=O)C(=O)NCC(=O)N[C@@H](Cc1ccc(O)cc1)C(N)=O)C(C)C)[C@@H](C)O)C(C)C)[C@@H](C)O` [compound 273] (H-GCRTGTCTVQ[Cit]LAHQIYQFTDKDKDNVAPRTNVGPQGY-NH2; disulfide 2-7; N-terminus assumed), in data set [1], the “Max ThT signal (%)” value stood at 29.000%. Moreover, the concentration for a half-maximal effect (EC50) at hAMY3 receptor was 0.021 nM; on hAM1 receptor, > 5000 nM.

As for `CC[C@H](C)[C@H](NC(=O)[C@H](CCC(N)=O)NC(=O)[C@H](Cc1c[nH]cn1)NC(=O)[C@H](C)NC(=O)[C@H](CC(C)C)NC(=O)[C@H](CCCNC(N)=O)NC(=O)[C@H](CCC(N)=O)NC(=O)[C@@H](NC(=O)[C@@H](NC(=O)[C@@H]1CSSC[C@H](NC(=O)CN)C(=O)N[C@@H](CCCNC(=N)N)C(=O)N[C@@H](Cc2ccccc2)C(=O)NCC(=O)N[C@@H]([C@@H](C)O)C(=O)N1)[C@@H](C)O)C(C)C)C(=O)N[C@@H](Cc1ccc(O)cc1)C(=O)N[C@@H](CCC(N)=O)C(=O)N[C@@H](Cc1ccccc1)C(=O)N[C@H](C(=O)N[C@@H](CC(=O)O)C(=O)N[C@@H](CCCCN)C(=O)N[C@@H](CC(=O)O)C(=O)N[C@@H](CCCCN)C(=O)N[C@@H](CC(=O)O)C(=O)N[C@@H](CC(N)=O)C(=O)N[C@H](C(=O)N[C@@H](C)C(=O)N1CCC[C@H]1C(=O)N[C@@H](CCCNC(=N)N)C(=O)N[C@H](C(=O)N[C@@H](CCCCN)C(=O)N[C@H](C(=O)N[C@@H](CO)C(=O)N1CCC[C@H]1C(=O)N[C@@H](CC(N)=O)C(=O)NCC(=O)N1C[C@H](O)C[C@H]1C(N)=O)[C@@H](C)CC)[C@@H](C)O)C(C)C)[C@@H](C)O` [compound 275] (H-GCRFGTCTVQ[Cit]LAHQIYQFTDKDKDNVAPRTKISPNG[Hyp]-NH2; disulfide 2-7; N-terminus assumed), the “Max ThT signal (%)” value in data set [1] turned out to be 19.850%. Besides, the half-maximal effective concentration (EC50) at hAMY3 receptor was 0.02 nM; on hAM1 receptor, > 5000 nM.

With `CC[C@H](C)[C@H](NC(=O)[C@H](CCC(N)=O)NC(=O)[C@H](Cc1c[nH]cn1)NC(=O)[C@H](C)NC(=O)[C@H](CC(C)C)NC(=O)[C@H](CCCNC(N)=O)NC(=O)[C@H](CCC(N)=O)NC(=O)[C@@H](NC(=O)[C@@H](NC(=O)[C@@H]1CSSC[C@H](NC(=O)[C@@H](N)CCCCN)C(=O)N[C@@H](CC(N)=O)C(=O)N[C@@H]([C@@H](C)O)C(=O)N[C@@H](C)C(=O)N[C@@H]([C@@H](C)O)C(=O)N1)[C@@H](C)O)C(C)C)C(=O)N[C@@H](Cc1ccc(O)cc1)C(=O)N[C@@H](CCC(N)=O)C(=O)N[C@@H](C)C(=O)N[C@H](C(=O)N[C@@H](CC(=O)O)C(=O)N[C@@H](CCCCN)C(=O)N[C@@H](CC(=O)O)C(=O)N[C@@H](CCCCN)C(=O)N[C@@H](CC(=O)O)C(=O)N[C@@H](CC(N)=O)C(=O)N[C@H](C(=O)N[C@@H](C)C(=O)N1CCC[C@H]1C(=O)N1CCC[C@H]1C(=O)N[C@H](C(=O)N[C@@H](CC(N)=O)C(=O)N[C@H](C(=O)NCC(=O)N[C@@H](CO)C(=O)N[C@@H](CC(N)=O)C(=O)NCC(=O)N1C[C@H](O)C[C@H]1C(N)=O)C(C)C)[C@@H](C)O)C(C)C)[C@@H](C)O` [compound 276] (H-KCNTATCTVQ[Cit]LAHQIYQATDKDKDNVAPPTNVGSNG[Hyp]-NH2; disulfide 2-7; N-terminus assumed), the “Max ThT signal (%)” value in data set [1] is given as 8.950%. The EC50 at hAMY3 receptor is 0.056 nM; on hAM1 receptor, > 5000 nM.

Consider `CC[C@H](C)[C@H](NC(=O)[C@H](CC(N)=O)NC(=O)[C@@H](NC(=O)[C@H](CCCNC(=N)N)NC(=O)[C@@H]1CCCN1C(=O)[C@H](C)NC(=O)[C@@H](NC(=O)[C@H](CC(N)=O)NC(=O)[C@H](CC(=O)O)NC(=O)[C@H](CCCCN)NC(=O)[C@H](CC(=O)O)NC(=O)[C@H](CCCCN)NC(=O)[C@H](CC(=O)O)NC(=O)[C@@H](NC(=O)[C@H](Cc1ccccc1)NC(=O)[C@H](CCC(N)=O)NC(=O)[C@H](Cc1ccc(O)cc1)NC(=O)[C@@H](NC(=O)[C@H](CCC(N)=O)NC(=O)[C@H](Cc1c[nH]cn1)NC(=O)[C@H](C)NC(=O)[C@H](CC(C)C)NC(=O)[C@H](CCCNC(N)=O)NC(=O)[C@H](CCC(N)=O)NC(=O)[C@@H](NC(=O)[C@@H](NC(=O)[C@@H]1CSSC[C@H](NC(=O)CN)C(=O)N[C@@H](CCCNC(=N)N)C(=O)N[C@@H]([C@@H](C)O)C(=O)NCC(=O)N[C@@H]([C@@H](C)O)C(=O)N1)[C@@H](C)O)C(C)C)[C@@H](C)CC)[C@@H](C)O)C(C)C)[C@@H](C)O)C(=O)NCC(=O)N1CCC[C@H]1C(=O)N[C@@H](CCC(N)=O)C(=O)NCC(=O)N1C[C@H](O)C[C@H]1C(N)=O` [compound 280] (H-GCRTGTCTVQ[Cit]LAHQIYQFTDKDKDNVAPRTNIGPQG[Hyp]-NH2; disulfide 2-7; N-terminus assumed), for which the “Max ThT signal (%)” value in data set [1] was 26.450%. In addition, the EC50 is 0.024 nM at hAMY3 receptor and > 5000 nM on hAM1 receptor.

`CC[C@H](C)[C@H](NC(=O)[C@H](CCC(N)=O)NC(=O)[C@H](Cc1c[nH]cn1)NC(=O)[C@H](C)NC(=O)[C@H](CC(C)C)NC(=O)[C@H](CCCNC(N)=O)NC(=O)[C@H](CCC(N)=O)NC(=O)[C@@H](NC(=O)[C@@H](NC(=O)[C@@H]1CSSC[C@H](NC(=O)CN)C(=O)N[C@@H](CCCNC(=N)N)C(=O)N[C@@H]([C@@H](C)O)C(=O)NCC(=O)N[C@@H]([C@@H](C)O)C(=O)N1)[C@@H](C)O)C(C)C)C(=O)N[C@@H](Cc1ccc(O)cc1)C(=O)N[C@@H](CCC(N)=O)C(=O)N[C@@H](Cc1ccccc1)C(=O)N[C@H](C(=O)N[C@@H](CC(=O)O)C(=O)N[C@@H](CCCCN)C(=O)N[C@@H](CC(=O)O)C(=O)N[C@@H](CCCCN)C(=O)N[C@@H](CC(=O)O)C(=O)N[C@@H](CC(N)=O)C(=O)N[C@H](C(=O)N[C@@H](C)C(=O)N1CCC[C@H]1C(=O)N[C@@H](CCCNC(=N)N)C(=O)N[C@@H](CO)C(=O)N[C@@H](CC(N)=O)C(=O)N[C@H](C(=O)NCC(=O)N1CCC[C@H]1C(=O)N[C@@H](CCC(N)=O)C(=O)NCC(=O)N1C[C@H](O)C[C@H]1C(N)=O)C(C)C)C(C)C)[C@@H](C)O` [compound 281] (H-GCRTGTCTVQ[Cit]LAHQIYQFTDKDKDNVAPRSNVGPQG[Hyp]-NH2; disulfide 2-7; N-terminus assumed): the “Max ThT signal (%)” value in data set [1] is 22.650%. Moreover, the EC50 at hAMY3 receptor was 0.034 nM; at hAM1 receptor, > 5000 nM.
